Source: patent US20210261512A1, “NOVEL COMPOUNDS” (INFLAZOME LIMITED, priority 2018, published 2021)

These compounds were tested against NLRP3 (Homo sapiens, UniProt Q96P20) (assay: THP-1 cells pyroptosis assay). Details: LPS 1.0 μg/ml, nigericin 5 μM, resazurin readout, 10 μM top dose (Example 2: top dose of 30 μM).
Chain of NLRP3 (Q96P20 whole entry): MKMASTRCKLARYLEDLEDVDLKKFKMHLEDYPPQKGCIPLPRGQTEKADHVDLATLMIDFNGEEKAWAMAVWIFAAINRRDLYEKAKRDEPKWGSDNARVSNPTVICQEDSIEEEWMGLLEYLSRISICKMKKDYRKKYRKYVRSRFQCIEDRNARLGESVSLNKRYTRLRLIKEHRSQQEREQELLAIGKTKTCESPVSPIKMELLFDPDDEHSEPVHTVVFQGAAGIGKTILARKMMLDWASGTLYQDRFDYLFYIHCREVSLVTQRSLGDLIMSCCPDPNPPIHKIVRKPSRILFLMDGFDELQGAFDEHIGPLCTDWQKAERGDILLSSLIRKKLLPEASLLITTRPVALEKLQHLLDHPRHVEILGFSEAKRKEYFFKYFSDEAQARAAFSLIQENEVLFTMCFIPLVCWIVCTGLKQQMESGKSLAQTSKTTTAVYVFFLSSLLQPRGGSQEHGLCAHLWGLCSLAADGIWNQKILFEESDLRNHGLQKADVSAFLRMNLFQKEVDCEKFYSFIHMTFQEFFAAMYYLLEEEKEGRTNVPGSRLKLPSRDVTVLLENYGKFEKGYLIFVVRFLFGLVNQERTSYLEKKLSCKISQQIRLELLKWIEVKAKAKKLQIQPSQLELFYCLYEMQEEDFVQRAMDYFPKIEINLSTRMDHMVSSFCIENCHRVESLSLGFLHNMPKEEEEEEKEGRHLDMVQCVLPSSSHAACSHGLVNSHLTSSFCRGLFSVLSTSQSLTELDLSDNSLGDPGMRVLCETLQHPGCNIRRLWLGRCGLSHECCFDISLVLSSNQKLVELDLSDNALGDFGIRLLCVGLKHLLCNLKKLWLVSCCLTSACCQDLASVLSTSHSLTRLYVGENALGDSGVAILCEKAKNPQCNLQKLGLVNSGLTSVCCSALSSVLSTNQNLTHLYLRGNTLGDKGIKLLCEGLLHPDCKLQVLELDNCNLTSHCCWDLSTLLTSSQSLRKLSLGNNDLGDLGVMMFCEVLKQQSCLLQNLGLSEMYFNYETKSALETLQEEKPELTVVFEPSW
Format: cell-based
Parameters: Seed THP-1 cells (25,000 cells/well) containing 1.0 μg/ml LPS; host or cells: THP-1
Experimental: THP-1 cells (ATCC #TIB-202) were grown in RPMI containing L-glutamine (Gibco #11835) supplemented with imM sodium pyruvate (Sigma #S8636) and penicillin (100 units/ml)/streptomycin (0.1 mg/ml) (Sigma #P4333) in 10% Fetal Bovine Serum (FBS) (Sigma #F0804). The cells were routinely passaged and grown to confluency (˜10^6 cells/ml). On the day of the experiment, THP-1 cells were harvested and resuspended into RPMI medium (without FBS). The cells were then counted and viability (>90%) checked by Trypan blue (Sigma #T8154). Appropriate dilutions were made to give a concentration of 625,000 cells/ml. To this diluted cell solution was added LPS (Sigma #L4524) to give a 1 μg/ml Final Assay Concentration (FAC). 40 μl of the final preparation was aliquoted into each well of a 96-well plate. The plate thus prepared was used for compound screening.
The following method step-by-step assay was followed for compound screening. • 1. Seed THP-1 cells (25,000 cells/well) containing 1.0 μg/ml LPS in 40 μl of RPMI medium (without FBS) in 96-well, black walled, clear bottom cell culture plates coated with poly-D-lysine (VWR #734-0317) • 2. Add 5 μl compound (8 points four-fold dilution or 8 points half-log dilution, with 10 μM top dose, unless stated otherwise) or vehicle (DMSO 0.1% FAC) to the appropriate wells • 3. Incubate for 3 hrs at 37° C. and 5% CO2 • 4. Add 5 μl nigericin (Sigma #N7143) (FAC 5 μM) to all wells • 5. Incubate for 1 hr at 37° C. and 5% CO2 • 6. At the end of the incubation period, spin plates at 300×g for 3 mins and remove supernatant • 7. Then add 50 μl of resazurin (Sigma #R^7017) (FAC 100 μM resazurin in RPMI medium without FBS) and incubate plates for a further 1-2 hrs at 37° C. and 5% CO2 • 8. Plates were read in an Envision reader at Ex 560 nm and Em 590 nm • 9. IC50 data is fitted to a non-linear regression equation (log inhibitor vs response-variable slope 4-parameters)
`O=S(=O)(NCc1ccncc1)c1nnc(Nc2c3c(cc4c2CCC4)CCC3)[nH]1` [Example 96, 5-((1,2,3,5,6,7-hexahydro-s-indacen-4-yl)amino)-N-(pyridin-4-ylmethyl)-4H-1,2,4-triazole-3-sulfonamide] was tested, and the IC50 was ≤ 5 µM.
In the case of `O=S(=O)(NCc1cccnc1)c1nnc(Nc2c3c(cc4c2CCC4)CCC3)[nH]1` [Example 97, 5-((1,2,3,5,6,7-hexahydro-s-indacen-4-yl)amino)-N-(pyridin-3-ylmethyl)-4H-1,2,4-triazole-3-sulfonamide], the IC50 is reported as ≤ 5 µM.
`O=S(=O)(NCc1ccccn1)c1nnc(Nc2c3c(cc4c2CCC4)CCC3)[nH]1` [Example 98, 5-((1,2,3,5,6,7-hexahydro-s-indacen-4-yl)amino)-N-(pyridin-2-ylmethyl)-4H-1,2,4-triazole-3-sulfonamide] was tested, and the IC50 was ≤ 5 µM.
With `Cn1cc(NS(=O)(=O)c2nnc(Nc3c4c(cc5c3CCC5)CCC4)[nH]2)cn1` [Example 99, 5-((1,2,3,5,6,7-hexahydro-s-indacen-4-yl)amino)-N-(1-methyl-1H-pyrazol-4-yl)-4H-1,2,4-triazole-3-sulfonamide] the IC50 was ≤ 10 µM.
In the case of `CN1CCN(S(=O)(=O)c2nnc(Nc3c4c(cc5c3CCC5)CCC4)[nH]2)CC1` [Example 100, N-(1,2,3,5,6,7-hexahydro-s-indacen-4-yl)-5-((4-methylpiperazin-1-yl)sulfonyl)-4H-1,2,4-triazol-3-amine], the IC50 is reported as ≤ 5 µM.
In the case of `CN1CCC2CN(S(=O)(=O)c3nnc(Nc4c5c(cc6c4CCC6)CCC5)[nH]3)CC21` (centres unmarked) [Example 101, N-(1,2,3,5,6,7-hexahydro-s-indacen-4-yl)-5-((1-methylhexahydropyrrolo[3,4-b]pyrrol-5 (1H)-yl)sulfonyl)-4H-1,2,4-triazol-3-amine], the IC50 is reported as ≤ 5 µM.
`CN1CCC(NS(=O)(=O)c2nnc(Nc3c4c(cc5c3CCC5)CCC4)[nH]2)CC1` [Example 102, 5-((1,2,3,5,6,7-hexahydro-s-indacen-4-yl)amino)-N-(1-methylpiperidin-4-yl)-4H-1,2,4-triazole-3-sulfonamide] was tested, and the IC50 was ≤ 10 µM.
For `O=c1cccc(CNS(=O)(=O)c2nnc(Nc3c4c(cc5c3CCC5)CCC4)[nH]2)[nH]1` [Example 103, 5-((1,2,3,5,6,7-hexahydro-s-indacen-4-yl)amino)-N-((6-oxo-1,6-dihydropyridin-2-yl)methyl)-4H-1,2,4-triazole-3-sulfonamide], the IC50 was ≤ 5 µM.
For `CN1CCC[C@H](NS(=O)(=O)c2nnc(Nc3c4c(cc5c3CCC5)CCC4)[nH]2)C1` [Example 105, (S)-5-((1,2,3,5,6,7-hexahydro-s-indacen-4-yl)amino)-N-(1-methylpiperidin-3-yl)-4H-1,2,4-triazole-3-sulfonamide], the IC50 was ≤ 5 µM.
`C[C@@H](CN(C)C)NS(=O)(=O)c1nnc(Nc2c3c(cc4c2CCC4)CCC3)[nH]1` [Example 106, (S)—N-(1-(dimethylamino)propan-2-yl)-5-((1,2,3,5,6,7-hexahydro-s-indacen-4-yl)amino)-4H-1,2,4-triazole-3-sulfonamide] was tested, and the IC50 was ≤ 10 µM.
For `CC(=O)NCCN(C)S(=O)(=O)c1nnc(Nc2c3c(cc4c2CCC4)CCC3)[nH]1` [Example 107, N-(2-(5-((1,2,3,5,6,7-hexahydro-s-indacen-4-yl)amino)-N-methyl-4H-1,2,4-triazole-3-sulfonamido)ethyl)acetamide], the IC50 was ≤ 10 µM.
`COC(=O)CN(CCN)S(=O)(=O)c1nnc(Nc2c3c(cc4c2CCC4)CCC3)[nH]1` [Example 111, methyl 2-(N-(2-aminoethyl)-5-((1,2,3,5,6,7-hexahydro-s-indacen-4-yl)amino)-4H-1,2,4-triazole-3-sulfonamido)acetate] was tested, and the IC50 was ≤ 10 µM.
For `O=S(=O)(NC1CCCNC1)c1nnc(Nc2c3c(cc4c2CCC4)CCC3)[nH]1` (centres unmarked) [Example 112, 5-((1,2,3,5,6,7-hexahydro-s-indacen-4-yl)amino)-N-(piperidin-3-yl)-4H-1,2,4-triazole-3-sulfonamide], the IC50 was ≤ 5 µM.
With `CN1CCN(S(=O)(=O)c2nnc(Nc3c4c(cc5c3CCC5)CCC4)[nH]2)CC1=O` [Example 113, 4-((5-((1,2,3,5,6,7-hexahydro-s-indacen-4-yl)amino)-4H-1,2,4-triazol-3-yl)sulfonyl)-1-methylpiperazin-2-one] the IC50 was ≤ 5 µM.
